# Results taken from US20260234157A1, “COMPOUND AND METHOD FOR TARGETED DEGRADATION OF ANDROGEN RECEPTOR” (Gan & Lee Pharmaceuticals Co., Ltd., priority 2023, published 2026).
# Numbering of substitutions follows the chain as printed. Like-named read-outs stand apart in the source and are kept apart here.
# Columns and labels:
# Assay type in all cases: cell-based
# [1] = tested on: VCaP cells; assay: Inhibition of proliferation of VCaP cells (WST-8); details: Homo sapiens, read-out: IC50 for inhibiting the proliferation of VCaP cells
# Description: The inhibitory activity of the compounds disclosed in the present disclosure on the proliferation of VCaP cells
# On the first day of the experiment, […] were inoculated in 96 well plates at a density of 15000 cells per well using DMEM medium containing 10% fetal bovine serum, with 100 μL of cell suspension per well. The cells were cultured in a cell culture incubator with 5% CO2 at 37° C. overnight. […] On the ninth day, 96 well plates were taken out, and 20 μL of WST-8 (Beytime, C0040) reagent was added to each well.
# [2] = tested on: LNCaP FGC cells; assay: Inhibition of proliferation of LNCaP cells (WST-8); details: Homo sapiens, LNCaP, 96 h
# Description: The cells were cultured in a cell culture incubator with 5% CO2 at 37° C. overnight. […] On the sixth day, 96 well plates were taken out, and 20 μL of WST-8 (Beytime, C0040) reagent was added to each well.
# [3] = molecular target: T1, AR protein (Homo sapiens, UniProt P10275, T878A); assay: Degradation of AR protein in LNCaP cells (Western blot); details: for inhibition at 0.01 µM: read-out: Degradation rates of the AR protein in LNCaP cells, 10 nM (%); for inhibition at 0.1 µM: read-out: Degradation rates of the AR protein in LNCaP cells, 100 nM (%)
# T1 construct: degradation activity of the compounds disclosed in the present disclosure on AR protein in LNCaP cells; host or cells: LNCaP FGC
# T1 sequence (P10275 1-920 T878A): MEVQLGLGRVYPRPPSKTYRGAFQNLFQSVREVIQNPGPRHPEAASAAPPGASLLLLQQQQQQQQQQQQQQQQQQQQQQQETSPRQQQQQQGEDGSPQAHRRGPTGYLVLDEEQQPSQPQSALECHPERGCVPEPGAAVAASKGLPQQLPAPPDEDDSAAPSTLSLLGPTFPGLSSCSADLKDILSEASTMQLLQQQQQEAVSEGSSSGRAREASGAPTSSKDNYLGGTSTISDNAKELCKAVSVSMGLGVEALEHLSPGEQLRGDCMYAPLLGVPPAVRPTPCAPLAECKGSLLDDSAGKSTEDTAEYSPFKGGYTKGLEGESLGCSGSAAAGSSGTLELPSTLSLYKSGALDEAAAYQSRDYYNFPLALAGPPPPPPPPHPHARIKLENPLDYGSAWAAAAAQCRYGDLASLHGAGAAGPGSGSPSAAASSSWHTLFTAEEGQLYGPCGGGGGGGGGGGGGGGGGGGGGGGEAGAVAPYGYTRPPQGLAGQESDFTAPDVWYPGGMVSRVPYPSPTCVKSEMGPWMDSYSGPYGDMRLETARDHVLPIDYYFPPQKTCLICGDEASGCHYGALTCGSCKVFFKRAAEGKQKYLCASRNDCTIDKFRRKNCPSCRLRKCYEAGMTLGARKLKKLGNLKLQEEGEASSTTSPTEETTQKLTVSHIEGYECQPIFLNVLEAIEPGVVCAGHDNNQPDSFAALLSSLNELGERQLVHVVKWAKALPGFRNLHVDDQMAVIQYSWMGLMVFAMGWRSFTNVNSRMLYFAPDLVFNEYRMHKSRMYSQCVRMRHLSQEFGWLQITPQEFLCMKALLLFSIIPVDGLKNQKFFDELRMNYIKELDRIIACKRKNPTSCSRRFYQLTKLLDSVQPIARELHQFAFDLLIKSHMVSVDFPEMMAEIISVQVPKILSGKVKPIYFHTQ
# In short: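 Percent AR degradation was derived from GAPDH-normalised Western blot band intensities (infrared detection) in LNCaP lysates.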
# [4] = molecular target: T2, AR protein (Homo sapiens, UniProt P10275); assay: Degradation of AR protein in VCaP cells (Western blot); details: 8 hours; for inhibition at 0.01 µM: compound at 10 nM, read-out: Degradation rate of the AR protein in VCaP cells, 10 nM (%); for inhibition at 0.1 µM: compound at 100 nM, read-out: Degradation rate of the AR protein in VCaP cells, 100 nM (%)
# T2 construct: degradation activity of the compounds disclosed in the present disclosure on AR protein in VCaP cells; host or cells: VCaP
# T2 sequence (P10275 1-920): T1 sequence (P10275 1-920 T878A) with A878T
# In short: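 Western blot readout: AR band grayscale normalised to GAPDH, used to derive degradation rate. Lysates came from VCaP cells exposed to compound for 8 h, with solvent controls run in parallel.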
# [5] = VCaP cells, 168 hours, WST-8 absorbance at 450 nm
# [6] = read-out: IC50 for inhibiting the proliferation of LNCaP cells, LNCaP FGC cells, 96 hours, WST-8 absorbance at 450 nm
# [7] = LNCaP FGC cells, 96 hours, WST-8 absorbance at 450 nm, read-out: IC50 for inhibiting the proliferation of LNCaP cells
# [8] = LNCaP cells, compound 10 nM, 8 hours, Western blot grayscale, GAPDH internal reference
# [9] = LNCaP cells, compound 100 nM, 8 hours, Western blot grayscale, GAPDH internal reference
SMILES,"IC50 ([1]; VCaP, 168 h)","IC50 [2, 7]","inhibition at 0.01 µM [3, 8]","inhibition at 0.1 µM [3, 9]",inhibition at 0.01 µM [4],inhibition at 0.1 µM [4],other results
CC1(C)C(=O)N(c2ccc(C#N)c(C(F)(F)F)c2)C(=S)N1c1ccc(C(=O)N2CCC3(CC2)CC(N2CCC4(CCc5cc6c(cc5O4)C(=O)N(C4CCC(=O)NC4=O)C6=O)CC2)C3)c(F)c1 (stereo not drawn) [Compound 103],,,,,,,"IC50 [1, 5]: 2.74 µM"
COC1(CN2CC3(CCc4cc5c(cc4O3)CN(C3CCC(=O)NC3=O)C5=O)C2)CCN(C(=O)c2ccc(N3C(=S)N(c4ccc(C#N)c(C(F)(F)F)c4)C(=O)C3(C)C)cc2F)CC1 (stereo not drawn) [Compound 89],0.35 µM,,,,,,"IC50 [2, 6]: 3.24 µM"
CC1(C)C(=O)N(c2ccc(C#N)c(C(F)(F)F)c2)C(=S)N1c1ccc(C(=O)N2CCC(CN3CCN(c4cc5c(cc4F)C(=O)N(C4CCC(=O)NC4=O)C5=O)CC3)CC2)c(F)c1 (stereo not drawn) [Compound 87],,5.16 µM,,,,,"IC50 [1, 5]: 4.19 µM"
CC1(C)C(=O)N(c2ccc(C#N)c(C(F)(F)F)c2)C(=S)N1c1ccc(C(=O)N2CCC(N3CCC4(CCc5cc6c(cc5O4)C(=O)N(C4CCC(=O)NC4=O)C6=O)CC3)CC2)c(F)c1 (stereo not drawn) [Compound 101],3.75 µM,,,,,,
COC1(CN2CCC3(CCc4cc5c(cc4O3)C(=O)N(C3CCC(=O)NC3=O)C5)CC2)CCN(c2ccc(C(=O)N[C@H]3CC[C@H](Oc4ccc(C#N)c(Cl)c4)CC3)nn2)CC1 (stereo partly drawn) [Compound 131],,4.55 µM,,,,,"IC50 [1, 5]: 2.27 µM"
COc1cc(O[C@H]2CC[C@H](NC(=O)c3cnc(N4CCC(CN5CC6(CCc7cc8c(cc7O6)C(=O)N(C6CCC(=O)NC6=O)C8=O)C5)(OC)CC4)nc3)CC2)ccc1C#N (stereo partly drawn) [Compound 232],,,33%,36%,37%,43%,"IC50 [1, 5]: 4.41 µM"
CC1(C)C(=O)N(c2ccc(C#N)c(C(F)(F)F)c2)C(=S)N1c1ccc(C(=O)N2CC3(CCC(N4CCC5(CC4)COc4cc6c(cc4C5)C(=O)N(C4CCC(=O)NC4=O)C6=O)CC3)C2)c(F)c1 (stereo not drawn) [Compound 86],2.49 µM,,,,,,"IC50 [2, 6]: 4.53 µM"
CC1(C)C(=O)N(c2ccc(C#N)c(C(F)(F)F)c2)C(=S)N1c1ccc(C(=O)N2CCC(F)(CN3CCC4(CCc5cc6c(cc5O4)C(=O)N(C4CCC(=O)NC4=O)C6=O)CC3)CC2)c(F)c1 (stereo not drawn) [Compound 97],1.3 µM,,,,,,
CC1(C)C(=O)N(c2ccc(C#N)c(C(F)(F)F)c2)C(=S)N1c1ccc(C(=O)N2CCC(CN3CCC4(CCc5cc6c(cc5O4)C(=O)N(C4CCC(=O)NC4=O)C6=O)CC3)CC2)c(F)c1 (stereo not drawn) [Compound 99],3.8 µM,,,,,,
N#Cc1ccc(O[C@H]2CC[C@H](NC(=O)c3ccc(N4CC(N5CCC6(CCc7cc8c(cc7O6)C(=O)N(C6CCC(=O)NC6=O)C8)CC5)C4)nn3)CC2)cc1Cl (stereo partly drawn) [Compound 46],0.11 µM,,,,39%,59%,"inhibition at 0.01 µM ([3]; LNCaP, 8 h): 35%; inhibition at 0.1 µM ([3]; LNCaP, 8 h): 47%"
CC1(C)C(=O)N(c2ccc(C#N)c(C(F)(F)F)c2)C(=S)N1c1ccc(C(=O)N2CC(N3CCC4(CCc5cc6c(cc5O4)C(=O)N(C4CCC(=O)NC4=O)C6=O)CC3)C2)c(F)c1 (stereo not drawn) [Compound 102],3.88 µM,,,,,,
CC1(C)C(=O)N(c2ccc(C#N)c(C(F)(F)F)c2)C(=S)N1c1ccc(C(=O)N2CC3(CC(N4CCC5(CC4)COc4cc6c(cc45)C(=O)N(C4CCC(=O)NC4=O)C6=O)C3)C2)c(F)c1 (stereo not drawn) [Compound 92],4.09 µM,,,,,,
CC1(C)C(=O)N(c2ccc(C#N)c(C(F)(F)F)c2)C(=S)N1c1ccc(C(=O)N2CC(N3CCC4(CCc5cc6c(cc5O4)C(=O)N(C4CCC(=O)NC4=O)C6)CC3)C2)c(F)c1 (stereo not drawn) [Compound 105],2.96 µM,,,,,,
N#Cc1ccc(O[C@H]2CC[C@H](NC(=O)c3ccc(N4CCC5(CC4)CC(N4CCC6(CC4)COc4c(ccc7c4C(=O)N(C4CCC(=O)NC4=O)C7)C6)C5)nn3)CC2)cc1Cl (stereo partly drawn) [Compound 188],,3.72 µM,68%,66%,63%,79%,
COc1cc(O[C@H]2C(C)(C)[C@H](NC(=O)c3ccc(N4CCC(CN5CCC6(CC5)COc5c6ccc6c5CN(C5CCC(=O)NC5=O)C6=O)(OC)CC4)cc3)C2(C)C)ccc1C#N (stereo partly drawn) [Compound 217],,0.005 µM,-2%,48%,49%,83%,
COc1cc(O[C@H]2C(C)(C)[C@H](NC(=O)c3ccc(N4CCC(C#N)(CN5CCC6(CC5)COc5c6ccc6c5CN(C5CCC(=O)NC5=O)C6=O)CC4)nn3)C2(C)C)ccc1C#N (stereo partly drawn) [Compound 224],,0.011 µM,41%,52%,24%,57%,
CC1(C)C(=O)N(c2ccc(C#N)c(C(F)(F)F)c2)C(=S)N1c1ccc(C(=O)N2CC(CN3CCC4(CCc5cc6c(cc5O4)C(=O)N(C4CCC(=O)NC4=O)C6=O)CC3)C2)c(F)c1 (stereo not drawn) [Compound 84],4.57 µM,,,,,,
CC1(CN2CCC3(CC2)COc2c3ccc3c2CN(C2CCC(=O)NC2=O)C3=O)CCN(c2ccc(C(=O)N[C@H]3C(C)(C)[C@H](Oc4ccc(C#N)c(Cl)c4)C3(C)C)cc2)CC1 (stereo partly drawn) [Compound 222],,0.88 µM,4%,75%,8%,61%,
N#Cc1ccc(O[C@H]2CC[C@H](NC(=O)c3ccc(N4CC5(CCC(N6CCC7(CCc8ccc9c(c8O7)CN(C7CCC(=O)NC7=O)C9=O)CC6)CC5)C4)nn3)CC2)cc1Cl (stereo partly drawn) [Compound 153],,13.6 µM,23%,19%,35%,76%,
